The numbers were not newly measured in US12662687B2, “Methods and compositions for the production of xylitol from xylose utilizing dynamic metabolic control” (Duke University, priority 2020, dated 2026), which cites them from elsewhere.

The target of this data set is membrane bound transhydrogenase encoded by the pntAB genes (Escherichia coli, UniProt P07001+P0AB67). To be noted: competitive inhibitor, reported value.
Sequence of membrane bound transhydrogenase encoded by the pntAB genes (P07001 whole entry): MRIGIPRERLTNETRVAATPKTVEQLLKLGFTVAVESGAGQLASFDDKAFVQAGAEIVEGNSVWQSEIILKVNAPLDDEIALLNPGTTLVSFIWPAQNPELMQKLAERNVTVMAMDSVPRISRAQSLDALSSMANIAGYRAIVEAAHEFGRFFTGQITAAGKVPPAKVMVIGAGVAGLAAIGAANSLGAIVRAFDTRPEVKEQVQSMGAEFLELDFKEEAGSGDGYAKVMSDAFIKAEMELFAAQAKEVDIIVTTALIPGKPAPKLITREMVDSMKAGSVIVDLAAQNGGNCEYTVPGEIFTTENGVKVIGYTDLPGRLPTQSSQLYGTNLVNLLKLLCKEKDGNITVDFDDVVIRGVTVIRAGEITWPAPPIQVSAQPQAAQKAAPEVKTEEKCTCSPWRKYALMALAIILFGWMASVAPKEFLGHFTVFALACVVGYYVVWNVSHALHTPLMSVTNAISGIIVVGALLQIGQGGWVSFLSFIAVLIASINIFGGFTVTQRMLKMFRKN
Sequence of membrane bound transhydrogenase encoded by the pntAB genes (P0AB67 whole entry): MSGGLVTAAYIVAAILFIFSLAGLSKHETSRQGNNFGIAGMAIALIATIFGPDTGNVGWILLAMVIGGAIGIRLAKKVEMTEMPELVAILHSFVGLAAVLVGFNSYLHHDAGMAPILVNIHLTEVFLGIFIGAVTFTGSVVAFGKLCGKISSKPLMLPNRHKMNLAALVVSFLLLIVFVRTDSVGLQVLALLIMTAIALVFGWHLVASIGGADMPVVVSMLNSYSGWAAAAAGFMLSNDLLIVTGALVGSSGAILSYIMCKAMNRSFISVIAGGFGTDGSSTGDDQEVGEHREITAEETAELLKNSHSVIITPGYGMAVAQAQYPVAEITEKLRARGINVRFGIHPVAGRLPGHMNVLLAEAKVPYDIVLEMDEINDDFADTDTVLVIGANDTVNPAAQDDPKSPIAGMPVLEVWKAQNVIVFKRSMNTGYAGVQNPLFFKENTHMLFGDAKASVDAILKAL

For the compound `CCCCCCCCCCCCCCCC(=O)SCCNC(=O)CCNC(=O)[C@H](O)C(C)(C)COP(=O)(O)OP(=O)(O)OC[C@H]1O[C@@H](n2cnc3c(N)ncnc32)[C@H](O)[C@@H]1OP(=O)(O)O` [Palmitoyl-CoA], the inhibitory constant (Ki) is 1000 to 5000 nM.

By Ki is commonly meant a dissociation constant, usually derived from enzyme kinetics or from competition with a known ligand.
